System: SARS-CoV-2 variants (D614G, UK B.1.1.7, SA B.1.351, Brazil P.1)
Format: cell-based

Structure (SMILES)	reduction of SARS-CoV-2 variant titers
O=C([O-])CCN1C(=O)/C(=C/c2ccc(-c3ccc([N+](=O)[O-])cc3)o2)SC1=S.[K+] [KYA1797K]	85-96%
Cc1cc(/C=C/c2ccc3cc(N(C)C)ccc3[n+]2C)c(C)n1-c1ccccc1 [Pyrvinium]	77-96%
